These results are taken from patent publication US4049795A, “Treatment of hemorrhagic shock” (priority 1974, dated 1977).

Data set [1] has as its system isolated segment of aorta. Briefly: Isolated segment of aorta, tonus.
The subject of data set [2] is Hypercapnic anoxemia. Briefly: Hypercapnic anoxemia in rabbits. The class given is in vivo, rabbit. Here is the method:
(§1) The tests were done on rabbits weighing an average of 2.5 kg. The fastening of the cranial electrodes was done under local anaesthesia with procaine, as was the placing of the catheters in a femoral artery to record the blood pressure. The tracheotomies and tracheal intubations were also done under local anaesthesia using procaine. The temperature was maintained at around 38° C. Three types of anoxemia were investigated; 2. Hypercapnic anoxemia: The above-mentioned artificial ventilation of the animal after curarization was stopped. Stopping of the cerebral electrogenesis was obtained after an average of 120 seconds. 3. Nitrogen anoxemia: The animal was curarized and artifically ventilated as indicated above. Anoxemia was obtained by connecting a nitrogen gasbag to the air intake of the BEAUDOUIN apparatus; general non-hypercapnic anoxemia occurred. Air was […] seconds. […] A latency of 30 minutes was observed before anoxemia was caused.

Data set [3] relates to Nitrogen anoxemia. Briefly: Nitrogen anoxemia in rabbits. Format: in vivo, rabbit. As for the experimental part:
as §1, with “investigated;” for “investigated; 2. Hypercapnic anoxemia: The above-mentioned artificial ventilation of the animal after curarization was stopped. Stopping of the cerebral electrogenesis was obtained after an average of 120 seconds.”

Data set [4] has as its system free fatty acids in the plasma. The data set is described as follows: Non-esterified fatty acids in the plasma (DOLE). Format: in vivo, rabbit. The note with it: 1 g/kg. Here is the method:
Doses of 1 and 2 mg of adrenalin were introduced subcutaneously into rabbits weighing 2.5 to 3.5 kg.
FIGS. 8, 9 and 10 show the variation in the percentage of non-esterified fatty acids in the plasma as a function of the time. […]

In data set [5] the test system is cerebral lactate edema. The note with it: edema induced by mechanical, biological or pharmacological means; cited from earlier work.
Data set [6] in a line: Tolerance, intraperitoneal route, rabbits. The note with it: rabbit, in vivo, ip, single dose, read-out: tolerated single dose. The text has this: Rabbits tolerate a single dose of 8 g/kg by the intraperitoneal route.
Data set [7] deals with erythrocytic aggregation of the microcirculation (sludge). Briefly: Erythrocytic aggregation of the microcirculation (sludge), mesenteric circulation of the rabbit. Format: in vivo. The note with it: independent of the experimental cause of sludge. Here is the method:
This phenomenon was observed by using the technique developed by […] and BRUE (Agressologie, Vol. 4, No. 3, p. 299 ff of 1963): it entails a microscopic observation of the mesenteric circulation of the rabbit. […] The hemorrhagic shock was obtained by the […] method. The perfusion of adrenalin was carried out at a dose of 10 mg/kg/min. for 10 to 15 minutes. The perfusion of lactate was effected at a dose of 0.39 g/min for 15 minutes. The perfusion of ethyl alcohol (in a 20% aqueous solution) was carried out at a dose of 20 ml of solution (i.e. 4 ml of absolute alcohol) for 15 minutes.

Data set [8] deals with glucidic metabolism. Briefly: Glucidic metabolism under intravenous perfusion in rabbits (lactacidemia, pyruvicemia, glycemia). The class given is in vivo, rabbit. As for the experimental part:
These tests were carried out on rabbits weighing an average of 2.500 kg.
A trachetomy was carried out under local anaesthesia with procaine. […] A saphenous vein and the two femoral arteries were catheterized under local anaesthesia in order to register the blood pressure by a manometer and to take blood samples; a jugular vein was catheterized to the base of the skull to sample cerebral venous blood.
The results obtained were compared with those obtained following a perfusion carried out in the same way with sodium d,l-lactate at a dose of 40 mg/kg/min.
The glycemia was measured by the enzymatic method in the arterial and cerebral venus blood. The samples were taken before the perfusion, at the end of the perfusion, and at 30 minutes and 60 minutes after perfusion.

The mark [9] stands for this setting: 1 g/kg intravenously, prior perfusion.

With `O=C(CO)CO` [dihydroxyacetone], the “tonus of an isolated segment of aorta” value in data set [1] was “does not act on the tonus”. Moreover, the “recuperation latency, hypercapnic anoxemia” value in data set [2] (1 g/kg intravenously) was “an improvement which was difficult to measure”. Besides, the “survival time, hypercapnic anoxemia” value in data set [2] (setting [9]) is given as “pronounced”. Also, in data set [2] (1 g/kg intravenously, result in words), the “recuperation time, hypercapnic anoxemia” value is reported as “a clear improvement”. For the same molecule, in data set [2] (for 2 minutes of anoxemia), the “recuperation time, hypercapnic anoxemia” value is at most 30 s. In data set [3] (1 g/kg intravenously), the “recuperation latency, nitrogen anoxemia” value is recorded as “a slight improvement” and the “recuperation time, nitrogen anoxemia” value is “no improvement”. In addition, the “survival time, nitrogen anoxemia” value in data set [3] (setting [9]) was “minor”. Further, the “blood pressure in nitrogen anoxemia” value in data set [3] (anoxemia preceded by perfusion of dihydroxyacetone) is “maintained a high value”. The “percentages of non-esterified fatty acids in the plasma after adrenalin” value in data set [4] (after 1 mg of adrenalin, fed animals, FIG. 10) was “general tendency toward increased percentages”. Besides, the “percentage of non-esterified fatty acids in the plasma, fasted animals” value in data set [4] (animals without food for 24 hours, FIG. 11) was “return to normal”. Moreover, the “protection against cerebral lactate edema” value in data set [5] is “will protect a rat against cerebral lactate edema”. In addition, in data set [6], the MTD worked out at 8000 mg/kg. In data set [7], the “intravascular aggregation (sludge)” value is given as “caused the intravascular aggregation to disappear” and the mesenteric capillary circulation entry is on record as “re-established the mesenteric capilliary circulation”. Besides, the “lactacidemia compared with perfusion of sodium lactate” value in data set [8] (66 mg/kg over 15 minutes) is given as “values lower than those obtained after a perfusion of sodium lactate”. Moreover, the “lactacidemia at 30 and 60 minutes after the end of perfusion” value in data set [8] (30 and 60 minutes after perfusion) is “continued to increase at 30 and 60 minutes after the end of perfusion”. Besides, the glycemia entry in data set [8] (after a perfusion) was “increased considerably”. Moreover, in data set [8] (after sodium lactate), the “lactacidemia when perfusion of sodium lactate was followed by perfusion of dihydroxyacetone” value is reported as “a progressive fall in the lactacidemia”. In data set [8] (rabbit, intravenous perfusion), the pyruvicemia entry is “increased in parallel with lactacidemia”.
